This passage reports melting point results from US11535595B2, “Isoquinoline sulfonyl chloride acid addition salts and method of manufacture thereof” (D. WESTERN THERAPEUTICS INSTITUTE, INC., priority 2018, dated 2022).

For `c1ccc(CSc2ccc3cnccc3c2)cc1` [compound (4), 6-(benzylthio)isoquinoline], the melting point (as a rule, the temperature of the solid-liquid transition) turned out to be 80 °C.
Consider `Cl.O=S(=O)(Cl)c1ccc2cnccc2c1`, for which the melting point was 102 °C (dec.).
